Measured values from ChEMBL document CHEMBL1201862, “PubChem BioAssay data set” (2004).
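Method: 48-hour compound exposure of cells in 96-well plates, five concentrations, linear interpolation of endpoints. GI50 is the concentration that inhibits growth by half.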 Calls of active or inactive are those of the source. Rule as the data show it: active = GI50 up to about 1.1 µM and inactive = higher.

Legend:
Assay in all cases: DTP human tumour cell line panel, 48 h
786-0 = tested on: 786-0
A498 = tested on: A498
A549 = tested on: A549
ACHN = tested on: ACHN
BT-549 = tested on: BT-549
CAKI-1 = tested on: CAKI-1
CCRF-CEM = tested on: CCRF-CEM
DU-145 = tested on: DU-145
EKVX = tested on: EKVX
HCC 2998 = tested on: HCC 2998
HCT-116 = tested on: HCT-116
HCT-15 = tested on: HCT-15
HL-60 = tested on: HL-60
HOP-62 = tested on: HOP-62
HT-29 = tested on: HT-29
Hs-578T = tested on: Hs-578T
IGROV-1 = tested on: IGROV-1
K562 = tested on: K562
KM12 = tested on: KM12
LOX IMVI = tested on: LOX IMVI
MCF7 = tested on: MCF7
MDA-MB-231 = tested on: MDA-MB-231
MDA-N = tested on: MDA-N
MOLT-4 = tested on: MOLT-4
Malme-3M = tested on: Malme-3M
NCI-H226 = tested on: NCI-H226
NCI-H23 = tested on: NCI-H23
NCI-H460 = tested on: NCI-H460
NCI-H522 = tested on: NCI-H522
OVCAR-3 = tested on: OVCAR-3
OVCAR-5 = tested on: OVCAR-5
OVCAR-8 = tested on: OVCAR-8
PC-3 = tested on: PC-3
RPMI-8226 = tested on: RPMI-8226
RXF 393 = tested on: RXF 393
SF-268 = tested on: SF-268
SF-295 = tested on: SF-295
SF-539 = tested on: SF-539
SK-MEL-28 = tested on: SK-MEL-28
SK-MEL-2 = tested on: SK-MEL-2
SK-MEL-5 = tested on: SK-MEL-5
SN12C = tested on: SN12C
SNB-19 = tested on: SNB-19
SNB-75 = tested on: SNB-75
SR = tested on: SR
SW-620 = tested on: SW-620
T47D = tested on: T47D
TK-10 = tested on: TK-10
U-251 = tested on: U-251
UACC-257 = tested on: UACC-257
UACC-62 = tested on: UACC-62
UO-31 = tested on: UO-31
COLO 205 = tested on: COLO 205
HOP-92 = tested on: HOP-92
MDA-MB-435 = tested on: MDA-MB-435
NCI/ADR-RES = tested on: NCI/ADR-RES
OVCAR-4 = tested on: OVCAR-4
SK-OV-3 = tested on: SK-OV-3

Compound: Cc1c(C#N)c(N)[nH]c(=S)c1C#N
- GI50 (786-0): > 100 µM (inactive)
- GI50 (A498): > 100 µM (inactive)
- GI50 (A549): > 100 µM (inactive)
- GI50 (ACHN): > 100 µM (inactive)
- GI50 (BT-549): > 100 µM (inactive)
- GI50 (CAKI-1): > 100 µM (inactive)
- GI50 (CCRF-CEM): > 100 µM (inactive)
- GI50 (DU-145): > 100 µM (inactive)
- GI50 (EKVX): > 100 µM (inactive)
- GI50 (HCC 2998): > 100 µM (inactive)
- GI50 (HCT-116): > 100 µM (inactive)
- GI50 (HCT-15): > 100 µM
- GI50 (HL-60): > 100 µM (inactive)
- GI50 (HOP-62): > 100 µM (inactive)
- GI50 (HT-29): > 100 µM (inactive)
- GI50 (Hs-578T): > 100 µM (inactive)
- GI50 (IGROV-1): > 100 µM (inactive)
- GI50 (K562): > 100 µM (inactive)
- GI50 (KM12): > 100 µM (inactive)
- GI50 (LOX IMVI): > 100 µM (inactive)
- GI50 (MCF7): > 100 µM (inactive)
- GI50 (MDA-MB-231): > 100 µM (inactive)
- GI50 (MDA-N): > 100 µM (inactive)
- GI50 (MOLT-4): > 100 µM (inactive)
- GI50 (Malme-3M): > 100 µM (inactive)
- GI50 (NCI-H226): > 100 µM (inactive)
- GI50 (NCI-H23): > 100 µM (inactive)
- GI50 (NCI-H460): > 100 µM (inactive)
- GI50 (NCI-H522): > 100 µM (inactive)
- GI50 (OVCAR-3): > 100 µM (inactive)
- GI50 (OVCAR-5): > 100 µM (inactive)
- GI50 (OVCAR-8): > 100 µM (inactive)
- GI50 (PC-3): > 100 µM (inactive)
- GI50 (RPMI-8226): > 100 µM (inactive)
- GI50 (RXF 393): > 100 µM (inactive)
- GI50 (SF-268): > 100 µM (inactive)
- GI50 (SF-295): > 100 µM (inactive)
- GI50 (SF-539): > 100 µM (inactive)
- GI50 (SK-MEL-28): > 100 µM (inactive)
- GI50 (SK-MEL-2): > 100 µM (inactive)
- GI50 (SK-MEL-5): > 100 µM (inactive)
- GI50 (SN12C): > 100 µM (inactive)
- GI50 (SNB-19): > 100 µM (inactive)
- GI50 (SNB-75): > 100 µM (inactive)
- GI50 (SR): > 100 µM (inactive)
- GI50 (SW-620): > 100 µM (inactive)
- GI50 (T47D): > 100 µM (inactive)
- GI50 (TK-10): > 100 µM (inactive)
- GI50 (U-251): > 100 µM (inactive)
- GI50 (UACC-257): > 100 µM (inactive)
- GI50 (UACC-62): > 100 µM (inactive)
- GI50 (UO-31): > 100 µM (inactive)

Compound: COc1ccc(Nc2nc(N)c(C(=O)c3ccccc3)s2)cc1
- GI50 (786-0): 0.0494 µM (active)
- GI50 (A498): 5.66 µM (inactive)
- GI50 (A549): 0.152 µM (active)
- GI50 (ACHN): 7.67 µM (inactive)
- GI50 (BT-549): 1.33 µM (inactive)
- GI50 (CAKI-1): 0.0342 µM (active)
- GI50 (CCRF-CEM): 0.0226 µM (active)
- GI50 (COLO 205): 0.0398 µM (active)
- GI50 (DU-145): 0.178 µM (active)
- GI50 (EKVX): 0.142 µM (active)
- GI50 (HCC 2998): 0.227 µM (active)
- GI50 (HCT-116): 0.0267 µM (active)
- GI50 (HCT-15): 0.0471 µM
- GI50 (HL-60): < 0.01 µM (active)
- GI50 (HOP-62): 16.7 µM (inactive)
- GI50 (HOP-92): 33.6 µM (inactive)
- GI50 (HT-29): 0.0162 µM (active)
- GI50 (Hs-578T): 0.0826 µM (active)
- GI50 (IGROV-1): 0.273 µM (active)
- GI50 (K562): 0.0102 µM (active)
- GI50 (KM12): 0.143 µM (active)
- GI50 (LOX IMVI): 0.0524 µM (active)
- GI50 (MCF7): 0.54 µM (active)
- GI50 (MDA-MB-435): < 0.01 µM (active)
- GI50 (MDA-N): < 0.01 µM (active)
- GI50 (MOLT-4): < 0.0238 µM (active)
- GI50 (Malme-3M): 45.2 µM (inactive)
- GI50 (NCI-H226): 0.0935 µM (active)
- GI50 (NCI-H23): 0.232 µM (active)
- GI50 (NCI-H460): 0.0289 µM (active)
- GI50 (NCI-H522): 0.0148 µM (active)
- GI50 (NCI/ADR-RES): < 0.01 µM (active)
- GI50 (OVCAR-3): 0.0607 µM (active)
- GI50 (OVCAR-4): 2.44 µM (inactive)
- GI50 (OVCAR-5): 19.5 µM (inactive)
- GI50 (OVCAR-8): 0.139 µM (active)
- GI50 (PC-3): 0.0396 µM (active)
- GI50 (RPMI-8226): 0.0681 µM (active)
- GI50 (RXF 393): 0.19 µM (active)
- GI50 (SF-268): 0.839 µM (active)
- GI50 (SF-295): 0.0164 µM (active)
- GI50 (SF-539): 0.0129 µM (active)
- GI50 (SK-MEL-28): 44.4 µM (inactive)
- GI50 (SK-MEL-2): 0.054 µM (active)
- GI50 (SK-MEL-5): 0.0689 µM (active)
- GI50 (SK-OV-3): 0.0865 µM (active)
- GI50 (SN12C): 0.0811 µM (active)
- GI50 (SNB-19): 0.037 µM (active)
- GI50 (SNB-75): 0.0258 µM (active)
- GI50 (SR): < 0.01 µM (active)
- GI50 (SW-620): 0.0197 µM (active)
- GI50 (T47D): 40.2 µM (inactive)
- GI50 (TK-10): 23.8 µM (inactive)
- GI50 (U-251): 0.0302 µM (active)
- GI50 (UACC-257): 29.5 µM (inactive)
- GI50 (UACC-62): 0.05 µM (active)
- GI50 (UO-31): 0.0912 µM (active)
